How the values were obtained:
Format in all cases: cell-based, Human
HCT116 cells [1] = test: Assessment of cell morphological changes (Hoechst 33258 staining); conditions: HCT116 cells, 3, 10 and 30 μM, 48 hours
Description: (§1) Cells were plated in 6-well plates (200,000 cells/well) and treated with indicated concentrations of APTM. After incubation for 48 hours, cells were collected, washed with PBS and stained with Hoechst 33258 ([…]) in buffered formalin solution containing 5.6% NP-40. Apoptotic and living cells were viewed through DAPI filter of fluorescence inverted microscope (Leica DM2500 Fluorescence Microscope) at 400× magnifications.

HCT116 p53−/− cells [2] = test: Assessment of cell morphological changes (Hoechst 33258 staining), p53-deficient cells; conditions: highest concentration of 30 μM, 48 hours
Description: as §1

HCT116 cells [3] = test: Analysis of cell cycle by flow cytometry (PI staining); conditions: 48 hours
Description: Cell cycle distribution was determined by staining DNA with propidium iodide (PI). Briefly, 1.0×10^6 cells were incubated with or without APTM for 48 hours. Cells were washed with cold PBS and fixed in 70% ethanol at −20° C. for 2 hours. After washing with PBS, cells were stained with cold PI solution (20 μg/ml PI and 200 μg/mI RNase in PBS) for 30 minutes at room temperature in the dark. The percentage of cells in different phases of the cell cycle was determined by flow cytometer (BD Bioscience) and analyzed using FlowJo software.

[4] = test system: p53/Bax/cPARP signaling axis in HCT116 cells; test: Western blotting of apoptosis markers p53, Bax, cPARP; conditions: 48 hours
Description: (§2) HCT116 cells were treated with APTM at indicated concentrations for 48 hours, and harvested via trypsinization. Protein samples were prepared by scratching cells in RIPA buffer containing protease inhibitor cocktail (Roche) and diluted in SDS-PAGE protein sample buffer. Samples were heated for 5 minutes at 100° C. Protein concentrations were measured using Direct Detect® Infrared Spectrometer (Millipore, USA) according to the manufacturer's instructions. Equal amount of proteins were loaded on 4-20% SDS-polyacrylamide (PAGE) gel. After electrophoresis, gels were transferred to a PVDF membrane (Millipore) and incubated with primary antibodies overnight at 4° C. The membranes were then washed with TBST and incubated with horseradish peroxidase-conjugated anti-rabbit or anti-mouse antibodies (1:10000, Santa Cruz, Calif., USA) for 45 min at room temperature. Proteins were visualized with SuperSignal West Dura Extended Duration Substrate or SuperSignal West Pico Chemiluminescent Substrate (Thermo Scientific) using the Amersham Imager 600 western blotting system.

[5] = test system: Bax and cPARP expression in HCT116 p53−/− cells; test: Western blotting of apoptosis markers, p53-deficient cells; conditions: different APTM concentrations
Description: as §2

HCT116 p53−/− cells [6] = test: In vitro cell proliferation assay (SRB assay) on HCT116 p53-/- cells
Description: (§3) Human colon cancer cell line HCT116 (p53+/+) was purchased from ATCC and the p53−/− HCT116 cell line was provided by Bert Vogelstein, Johns Hopkins University. Cells were cultured in McCoy's 5A medium supplemented with 10% FBS, 100 units/ml penicillin G, and 100 μg/ml streptomycin in humidified atmosphere with 5% CO2. Cells were passaged twice weekly to maintain logarithmic growth.
(§4) The anti-proliferative effects of APTM on cancer cell lines were assessed by sulforhodamine B (SRB) colorimetric assay. Cells were seeded in 96-well plates at densities of 5,000 cells per well and cultured overnight. Then cells were susceptible to APTM at indicated concentrations and cultured for indicated times. After incubation, attached cells were fixed with 50 μL cold 50% (w/v) trichloroacetic acid (TCA) for 1 hour at 4° C., washed 5 times with slow-running tap water, and stained with 100 μL 0.4% (w/v) SRB. Optical density at 515 nm (OD515) was measured using a microplate reader (Molecular Devices) after mixing the protein-bound dye with 200 μL 10 mM Tris base solution (pH 10.5). The relative cell growth rate was determined with the following equation: Relative Growth (%)=OD (treated)/OD (control). The IC50 value was defined as the concentration required for a 50% reduction in cell growth.

HCT116 cells [7] = test: Colony formation assay; conditions: 8 days
Description: HCT116 cells were plated at 3,000 cells/well in six-well plates and cultured with indicated concentrations of APTM for 8 days. Cells were stained with 0.2% (w/v) crystal violet in buffered formalin for 20 minutes, and colonies were then photographed and quantified as previously described.

HCT116 p53−/− cells [8] = test: Analysis of apoptosis by flow cytometry (Annexin V-FITC/PI), p53-deficient cells; conditions: 48 hours
Description: (§5) Annexin V-FITC/PI double staining method was employed for the apoptosis assay in HCT116 p53+/+ and HCT116 p53−/− cells (1×10^6/well, 6-well plate). After 48 hours of treatment with APTM, cells were harvested in 15 ml centrifuge tubes by gentle scraping followed by centrifugation at 300×g for 5 minutes at room temperature. Cell suspension was washed two times with cold PBS by centrifugation at 300×g for 5 minutes at room temperature. Then cells were harvested, washed twice with cold PBS, and resuspended in 1×binding buffer (100 μL). Cells were transferred into a 1.5 ml micro-centrifuge tubes and stained with propidium iodide (5 μL) and FITC annexin V (5 μL). Cells were briefly vortexed after incubation for 15 minutes in the dark at room temperature. Then cells were filtered and analyzed by flow cytometry. Total apoptotic cells (FITC to Annexin V positive) were counted.

HCT116 p53+/+ cells = test: Analysis of apoptosis by flow cytometry (Annexin V-FITC/PI); conditions: 48 hours, control 2.53%
Description: as §5

HCT116 (p53+/+) cells = test: In vitro cell proliferation assay (SRB assay) on HCT116 cells; conditions: for relative growth rate: 10 μM APTM, percentage of control
Description: as §3, §4

resistance of p53 deficient cells versus HCT116 p53+/+ cells (IC50 ratio) (HCT116 p53−/− cells [6]; HCT116 p53−/− vs HCT116 p53+/+): more than 5 fold
IC50 (HCT116 p53−/− cells [6]; Homo sapiens, HCT-116, HCT116 p53−/− cells, 33.3 μM highest concentration tested, read-out: IC50 value (50% reduction in cell growth)): > 33.3 µM
IC50 (HCT116 (p53+/+) cells; Homo sapiens, HCT-116, 48 hours, SRB assay, read-out: IC50 value (50% reduction in cell growth)): 6.57 µM
Structure (SMILES): Cc1cccc(C)c1Nc1sc(C(=O)c2ccc(F)cc2)c(N)c1S(=O)(=O)c1ccccc1 [APTM, [3-Amino-5-[(2,6-dimethylphenyl)amino]-4-(phenylsulfonyl)-2-thienyl](4-fluorophenyl)methanone]
apoptotic morphological changes (Hoechst staining) (HCT116 cells [1]): typical morphological characteristics of apoptosis
nuclear staining / apoptotic morphological changes (Hoechst staining) (HCT116 p53−/− cells [2]): reserved normal nuclear staining
sub-G0/G1 fraction of cells (HCT116 cells [3]; concentration-dependent): increased
proportions of cells in G0/G1, S and G2/M phases (HCT116 cells [3]; different concentrations): almost unchanged
Bax level [4]: induced
cleaved nuclear poly(ADP-ribose) polymerase (cPARP) level [4]: concentration-dependently induction
p53 protein level [4]: substantially induced
Bax and cPARP expression [5]: blunted
Colony formation ability (HCT116 cells [7]; 3.0 μM): significantly decreased
Colony formation ability (HCT116 cells [7]; 10.0 μM): almost vanished
APTM induced apoptosis (annexin V-FITC/PI flow cytometry) (HCT116 p53−/− cells [8]): resistant
percentage of apoptotic cells (annexin V positive) (HCT116 p53+/+ cells; 3 μM): 7.67%
percentage of apoptotic cells (annexin V positive) (HCT116 p53+/+ cells; 10 μM): 20.86%
percentage of apoptotic cells (annexin V positive) (HCT116 p53+/+ cells; 30 μM): 43.7%
relative growth rate (HCT116 (p53+/+) cells; 24 hours): 76.36%
relative growth rate (HCT116 (p53+/+) cells; 72 hours): 24.57%

— patent US20190183856A1, “METHODS FOR TREATING CANCER” (Macau University of Science and Technology, priority 2017, published 2019)
